# Measurements: article PMC8734228 (Cancer discovery, 2021)
# Like-named read-outs stand apart in the source and are kept apart here.
# What was measured:
# RSK2 = conditions: read-out: Ki against other kinases: RSK2; cited from earlier work
# FLC4 PDX cells = test: Validation screen, 11-point dose response, 72 h, Cell Titer Glo; format: cell-based, human; conditions: read-out: EC50 FLC
# PKA = conditions: read-out: Ki PKA; cited from earlier work
# FLC PDX cells = test: Validation screen on cells dissociated from FLC PDX; format: cell-based, human
# FLC3 PDX cells = test: Validation screen, 11-point dose response, 72 h, Cell Titer Glo; format: cell-based, human; conditions: read-out: EC50 FLC
# PKCδ = conditions: read-out: Ki against other kinases: PKCδ; cited from earlier work
# GSK-3β = conditions: read-out: Ki against other kinases: GSK-3β; cited from earlier work
# FLC2 PDX cells = test: Validation screen, 11-point dose response, 72 h, Cell Titer Glo; format: cell-based, human; conditions: read-out: EC50 FLC
# FLC1 PDX cells = test: as above; format: cell-based, human; conditions: read-out: EC50 FLC
# ERK2 = conditions: read-out: Ki against other kinases: ERK2; cited from earlier work
# p70s6k = conditions: read-out: Ki against other kinases: p70s6k; cited from earlier work
# Rock1 = conditions: read-out: Ki against other kinases: Rock1; cited from earlier work
# Akt1 = conditions: read-out: Ki against other kinases: Akt1; cited from earlier work
# [1] = test system: primary human hepatocytes (PHH); test: Validation counter-screen on primary human hepatocytes; conditions: 72 h, read-out: EC50 PHH
# FLC5 PDX cells = test: Validation screen, 11-point dose response, 72 h, Cell Titer Glo; format: cell-based, human; conditions: read-out: EC50 FLC
# Akt3 = conditions: read-out: Ki against other kinases: Akt3; cited from earlier work
# Akt2 = conditions: read-out: Ki against other kinases: Akt2; cited from earlier work
# [2] = test system: cells dissociated directly from patient tumors (FLC.T6-T11); test: Direct from patient in vitro screening; format: cell-based, human; conditions: for Drug sensitivity of FLC.T6 compared with derived PDX FLC6 (EC50): cells direct from patient tumor vs cells from its PDX; for Sensitivity of cells tested directly from patients: 10μM-10nM, 72h, Cell Titer Glo
# FLC5 cells = test: Anchor screen, synergy assay; format: cell-based, human; conditions: FLC5, ZIP, Bliss and HSA scores
# Rock2 = conditions: read-out: Ki against other kinases: Rock2; cited from earlier work
# PKC = conditions: read-out: Ki against other kinases: PKC; printed as PKG/PKC; cited from earlier work
# PKG = conditions: read-out: Ki against other kinases: PKG; printed as PKG/PKC; cited from earlier work
# PI3K (p110α)/DNA-PK = conditions: read-out: IC50 PI3K (p110α)/DNA-PK; cited from earlier work
# FLC PDX = test: In vivo drug testing of HDAC inhibitors in mice bearing PDX
# FLC5 PDX = test: In vivo drug testing in mice bearing PDX FLC5; conditions: panobinostat 2.5mg/kg combined with navitoclax 50 mg/kg
# FLC1 cells = test: Role of ROS: survival with or without N-acetyl cysteine 10mM; format: cell-based, human; conditions: NAC 10mM, 72 h
# FLC1 PDX = test: In vivo drug testing in mice bearing PDX FLC1; conditions: 2 days, FLC1
smiles,measurement,setting,value
Cc1[nH]nc2ccc(-c3cncc(OC[C@@H](N)Cc4ccccc4)c3)cc12 [A-674563],Ki,RSK2,580 nM
same,EC50,"FLC4 PDX cells; FLC4, 72 h",160 nM
same,Ki,PKA,16 nM
same,Therapeutic window for FLC over PHH,FLC PDX cells; FLC PDX cells compared with PHH,no therapeutic window
same,EC50,"FLC3 PDX cells; FLC3, 72 h",880 nM
same,Ki,PKCδ,360 nM
same,Ki,GSK-3β,110 nM
same,EC50,"FLC2 PDX cells; FLC2, 72 h",700 nM
same,EC50,"FLC1 PDX cells; FLC1, 72 h",340 nM
same,Ki,ERK2,260 nM
NC[C@@](O)(c1ccc(Cl)cc1)c1ccc(-c2cn[nH]c2)cc1 [AT13148],EC50,"FLC4 PDX cells; Homo sapiens, 72 h",4290 nM
same,Ki,PKA,3 nM
same,Ki,p70s6k,8 nM
same,Ki,Rock1,6 nM
same,Ki,Akt1,38 nM
same,EC50,"[1]; Homo sapiens, Hepatocyte",4050 nM
same,EC50,"FLC5 PDX cells; Homo sapiens, 72 h",96 nM
same,EC50,"FLC3 PDX cells; Homo sapiens, 72 h",590 nM
same,Ki,Akt3,50 nM
same,Ki,Akt2,402 nM
same,Drug sensitivity of FLC.T6 compared with derived PDX FLC6 (EC50),[2],outliers
same,EC50,"FLC2 PDX cells; Homo sapiens, 72 h",6140 nM
same,EC50,"FLC1 PDX cells; Homo sapiens, 72 h",39 nM
same,Synergy with A1331852,FLC5 cells,some synergy
same,Ki,Rock2,4 nM
CCCCCCOC(=O)[C@]1(O)C[C@@H]2O[C@@]1(C)n1c3ccccc3c3c4c(c5c6ccccc6n2c5c31)C(=O)NC4 [KT5720],Ki,PKC,> 2000 nM
same,EC50,"FLC4 PDX cells; FLC4, 72 h",1480 nM
same,Ki,PKA,60 nM
same,EC50,[1],> 10000 nM
same,EC50,"FLC5 PDX cells; FLC5, 72 h",3870 nM
same,EC50,"FLC3 PDX cells; FLC3, 72 h",2710 nM
same,EC50,"FLC2 PDX cells; FLC2, 72 h",2140 nM
same,EC50,"FLC1 PDX cells; FLC1, 72 h",1610 nM
same,Ki,PKG,> 2000 nM
Cc1ccc([N+](=O)[O-])cc1S(=O)(=O)N(C)/N=C/c1cnc2ccc(Br)cn12 [PIK-75],IC50,PI3K (p110α)/DNA-PK,5.8 nM
same,"Effect on FLC PDX cells in vitro (dose response, normalized percent survival)","FLC PDX cells; 10nM-10μM, 72 h, FLC1-6","potent against FLC1,4 relative to PHH"
same,Sensitivity of cells tested directly from patients,[2],sensitive
Cc1[nH]c2ccccc2c1CCNCc1ccc(/C=C/C(=O)NO)cc1 [panobinostat],Tumor growth at 7 days,FLC PDX; 10mg/kg IP,−7%
same,Tumor growth at 14 days,FLC PDX; 10mg/kg IP,4%
same,Average weight loss,"FLC PDX; 10mg/kg IP, 14 days",11%
same,Tumor volume:mouse weight,"FLC PDX; 10mg/kg IP, 14 days",stable or decreased
same,Apoptosis as assayed by TUNEL,"FLC PDX; 10mg/kg, after 14 days",no increase in apoptosis
same,"Mitotic figures, Ki67 and pHH3 positive cells in tumors","FLC PDX; 10mg/kg, after 14 days",dramatic decrease
same,Tumor response with combined treatment,FLC5 PDX,partial response
same,Efficacy ranking in the screen,FLC PDX cells; ranked by average −log10EC50 for FLC1-5 minus −log10EC50 for PHH,103
same,Effect of N-acetyl cysteine (NAC) on the toxicity of the drug,FLC1 cells,mildly attenuated
same,Sensitivity of cells tested directly from patients,[2],sensitive
same,Drug sensitivity of FLC.T6 compared with derived PDX FLC6 (EC50),[2],correlated well
same,"Apoptosis (TUNEL), panobinostat alone compared to vehicle",FLC1 PDX; panobinostat 10mg/kg alone,no evidence of increased apoptosis
same,Apoptotic cells (TUNEL) with combined treatment,FLC1 PDX; panobinostat 10mg/kg combined with A1331852 25mg/kg,many apoptotic cells
